In PubChem BioAssay (NCI):
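1) Cells in 96-well plates. 2) Compound, 48 h, 5 concentrations. 3) Linear interpolation between surrounding doses. 4) Unreached endpoint = highest concentration. Abbreviation: GI50, concentration required for 50% inhibition of growth. TGI: total growth inhibition.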

Tests used:
Assay in all cases: NCI anticancer screen, dose series, 48 h
[1] = tested on: DU-145 prostate
[2] = tested on: MOLT-4 leukemia
[3] = tested on: OVCAR-3 ovarian
[4] = tested on: SF-268 CNS
[5] = tested on: SK-MEL-2 melanoma
[6] = tested on: SW-620 colon
[7] = tested on: UACC-62 melanoma
[8] = tested on: KM12 colon

SMILES	TGI [1]	TGI [2]	TGI [3]	TGI [4]	TGI [5]	TGI [6]	TGI [7]	GI50 [1]	GI50 [8]	TGI [8]	GI50 [2]	GI50 [3]	GI50 [4]	GI50 [5]	GI50 [6]	GI50 [7]
O=C(O)C1C(=O)Oc2c(cccc2[N+](=O)[O-])C1O (stereo not drawn)	> 100 µM	> 100 µM	> 100 µM	> 100 µM	> 100 µM	> 100 µM	> 100 µM									
C[C@@H](NC(=O)[C@@H](CC(=O)N1CCC(N2CCCCC2)CC1)N1C(=O)[C@@H](N2C(=O)OC[C@@H]2c2ccccc2)[C@H]1/C=C/c1cccc(Cl)c1)c1ccccc1	14.3 µM	10.7 µM	4.49 µM	7.21 µM	5.36 µM	4.7 µM	3.88 µM	4.03 µM	2.72 µM	9.63 µM	3.2 µM	1.99 µM	2.31 µM	2.25 µM	2.06 µM	1.95 µM
CCN(CC)CCCC(C)Nc1c2ccc(Cl)cc2nc2cc(OC)c(OC)cc12 (stereo not drawn)	11.2 µM	12.6 µM	7.63 µM	7.03 µM	5.73 µM	7.54 µM	4.69 µM	2.02 µM	2.54 µM	10.6 µM	0.594 µM	1.98 µM	1.93 µM	2.64 µM	1.35 µM	2.14 µM
O=c1oc(-c2ccccc2)cc2cccc(O)c12	> 100 µM	> 100 µM	85.8 µM	> 89.9 µM	> 100 µM	> 100 µM	> 64.3 µM	> 48.7 µM	20.8 µM	> 69.3 µM	66.3 µM	25.2 µM	30.1 µM	> 100 µM	58 µM	24.5 µM
Cc1cc([N+](=O)[O-])ccc1NS(=O)(=O)c1cc(Cl)ccc1Cl	> 100 µM	20.1 µM	> 46.6 µM	> 100 µM	8.56 µM	> 100 µM	17.9 µM	5.37 µM	4.04 µM	34.5 µM	4.03 µM	3.24 µM	4.49 µM	2.67 µM	4.36 µM	1.29 µM
CC(=O)OCc1ccc(O)c(C=O)c1	> 100 µM	> 100 µM	> 100 µM	> 100 µM	> 100 µM	> 100 µM	> 100 µM			> 100 µM						
COc1ccc(-c2cn(-c3cccc(C(=O)/C=C/c4ccc(O)c(OC)c4)c3)c(=O)[nH]2)cc1	9.27 µM	> 23.8 µM	7.37 µM	14.7 µM	> 58.1 µM	6.22 µM	16.1 µM	3.02 µM	1.7 µM	3.57 µM	2.87 µM	2.48 µM	3.32 µM	4.72 µM	2.42 µM	3.18 µM
N#Cc1ccc(C2C3=C(CCCC3=O)OC3=C2C(=O)c2ccccc2C3=O)cc1 (stereo not drawn)	3.07 µM	5.53 µM	0.711 µM	5.04 µM	3.33 µM	5.69 µM	4.02 µM	1.67 µM	3.14 µM	12.9 µM	1.63 µM	0.27 µM	1.97 µM	1.35 µM	2.21 µM	2.06 µM
O=C(NCCN1CCC(O)CC1)c1cc2c(o1)C(=O)c1ccccc1C2=O	0.325 µM	1.74 µM	0.658 µM	3.55 µM	2.21 µM	1.05 µM	0.308 µM	0.179 µM	0.481 µM	1.87 µM	0.383 µM	0.242 µM	1.27 µM	0.518 µM	0.31 µM	0.164 µM
N#C/C(=C\Nc1ccccn1)C(=O)c1ccco1	> 100 µM	> 100 µM	> 100 µM	> 100 µM	> 100 µM	> 100 µM	> 100 µM			> 100 µM						
O=C1c2cc(-c3ccccc3)ccc2-c2c1c1ccc([N+](=O)[O-])cc1c(=O)n2CCCBr	> 50 µM	> 50 µM	> 50 µM	> 50 µM	> 50 µM	> 50 µM	> 50 µM	> 50 µM	> 50 µM	> 50 µM	> 50 µM	> 50 µM	> 35.4 µM	> 50 µM	> 50 µM	49.4 µM
CSc1n(Cc2ccc3ccccc3c2)c(C)c[n+]1Cc1ccc2ccccc2c1	2.39 µM	3.01 µM	1.63 µM	2.13 µM	1.73 µM	2.26 µM	1.82 µM	1.07 µM	0.593 µM	1.96 µM	1.11 µM	0.445 µM	0.69 µM	0.486 µM	0.852 µM	0.519 µM
CCn1c2ccc(C(=O)CCCN(C)C)cc2c2cc(C(=O)CCCN(C)C)ccc21	8.34 µM	> 100 µM	6.72 µM	6.62 µM	3.97 µM	3.76 µM	20.8 µM			11.2 µM						
COc1ccc2c(c1)CCc1[nH]nc(-c3cc(OC)c(OC)c(OC)c3)c1-2	> 100 µM	> 100 µM	14.7 µM	26.8 µM	26.8 µM	14.5 µM	13 µM	< 0.01 µM	< 0.01 µM	11.8 µM	< 0.01 µM	< 0.01 µM	< 0.01 µM	< 0.01 µM	< 0.01 µM	< 0.01 µM
CCCCOC(=O)c1ccc(NC(=O)CCl)cc1	3.26 µM	6.21 µM	3.3 µM	4.05 µM	15.9 µM	3.38 µM	13.3 µM	1.81 µM	2.07 µM	4.52 µM	1.82 µM	1.7 µM	1.78 µM	4.89 µM	1.59 µM	2.74 µM
CC(=O)C1COC(O)C1C (stereo not drawn)	70.8 µM	99.2 µM	37 µM	49.9 µM	29.1 µM	44.2 µM	27.2 µM			28 µM						
Cn1c(/C=C(\C#N)c2cccc(C(F)(F)F)c2)nc2c(N3CCOCC3)nc(Cl)nc21	2.48 µM	1.55 µM	1.87 µM	3.25 µM	2.96 µM	1.4 µM	2.28 µM	1.22 µM	1.82 µM	3.58 µM	0.381 µM	0.665 µM	1.51 µM	1.47 µM	0.377 µM	0.973 µM

SMILES	TGI [1]	TGI [2]	TGI [3]	TGI [4]	TGI [5]	TGI [6]	TGI [7]	GI50 [1]	GI50 [8]	TGI [8]	GI50 [2]	GI50 [3]	GI50 [4]	GI50 [5]	GI50 [6]	GI50 [7]
Nc1nc2ccc3[nH]ncc3c2c2c1CCCC2	10.7 µM	10.8 µM	9.87 µM	6.18 µM	5.35 µM	10 µM	3.47 µM	2.4 µM	2.82 µM	11.6 µM	2.81 µM	2.78 µM	1.88 µM	2.12 µM	1.55 µM	1.43 µM
COc1cc2c(cc1OC)C(CC1(O)CCCCC1)N(S(=O)(=O)c1ccc(C)cc1)CC2 (stereo not drawn)	> 10 µM	> 10 µM	> 10 µM	> 10 µM	> 10 µM	> 10 µM	> 10 µM	> 10 µM	> 10 µM	> 10 µM	> 10 µM	> 10 µM	> 10 µM	> 10 µM	> 10 µM	> 10 µM
COc1c2c(c(CC=C(C)C)c3oc(=O)c(-c4ccc(O)cc4)c(O)c13)OC(C)(C)C=C2	> 100 µM	91 µM	67.2 µM	41 µM	52.8 µM	> 100 µM	46.6 µM			35 µM						
COc1cc(F)cc([C@@H](CO)NC(=O)[C@@H](C)N2Cc3ccc(-c4nc(NC5CCOCC5)ncc4Cl)cc3C2=O)c1	> 84.2 µM	34.1 µM	> 68.6 µM	99.6 µM		> 100 µM	0.0248 µM	12.3 µM	0.0988 µM	37.4 µM	7.42 µM	16.5 µM	14.1 µM		0.0761 µM	< 0.01 µM
CC1(C)N=C(N)N=C(N)N1c1ccc(CCc2ccc(Cl)cc2S(=O)(=O)F)c(Cl)c1	> 100 µM	73.6 µM	21.4 µM	53.5 µM		17.7 µM	31.5 µM	5.91 µM	4.63 µM	17.6 µM	11.5 µM	4.82 µM	4.21 µM		2.66 µM	4.57 µM
COc1ccc(-c2nn(-c3cccc(Cl)c3)cc2-c2c(C#N)c(=O)n3[nH]c(-c4ccc(C)cc4)nc3c2C#N)cc1	21.9 µM	5.46 µM	13.7 µM	7.76 µM	4.02 µM	2.73 µM	10.2 µM	2.74 µM	3.39 µM	24.2 µM	0.752 µM	6.52 µM	1.62 µM	1.41 µM	0.521 µM	2.54 µM
O=C(O)c1ccc([S-])cc1.[Au+].c1ccc(CN2[CH-]N(Cc3ccccc3)C(c3ccccc3)=C2c2ccccc2)cc1	1.74 µM		1.28 µM		1.21 µM	1.93 µM	1.4 µM	0.526 µM	0.513 µM	1.82 µM		0.373 µM		0.346 µM	0.418 µM	0.319 µM
Clc1ccc(C(c2ccc(Cl)cc2)N2CCNCC2)cc1	7.07 µM	5 µM	4.13 µM	19.7 µM	3.63 µM	4.96 µM	3.55 µM			3.63 µM						
CN1CCN(C(=O)c2c(NC(=O)NS(=O)(=O)c3ccccc3)sc3c2CCCCC3)CC1	> 100 µM	> 100 µM	> 100 µM	> 100 µM	> 100 µM	> 100 µM	60 µM	41 µM	29.3 µM	80.1 µM	> 100 µM	39.6 µM	41.2 µM	60.3 µM	43.9 µM	23 µM
C[C@]1(C(=O)O)N[C@H](C(=O)O)CS1			> 1000 µM	> 1000 µM	> 1000 µM	> 1000 µM	> 1000 µM		> 1000 µM	> 1000 µM		504 µM	> 1000 µM	> 1000 µM	> 1000 µM	> 1000 µM
O=C(Nc1ccc2[nH]c(C(=O)N3CC(CCl)c4c3cc([N+](=O)[O-])c3ccccc43)cc2c1)c1cc2ccccc2o1 (stereo not drawn)	> 1100 µM	> 1100 µM	> 1100 µM	> 1100 µM	> 1100 µM	> 1100 µM	> 1100 µM	> 1100 µM	> 1100 µM	> 1100 µM	180 µM	> 1100 µM	> 1100 µM	> 1100 µM	> 1100 µM	> 1100 µM
CN[C@@H]1C[C@H]2O[C@@](C)([C@@H]1OC)n1c3ccccc3c3c4c(c5c6ccccc6n2c5c31)C(=O)N[C@H]4O	> 5.9 µM	> 4.75 µM	1.99 µM	2.31 µM	0.853 µM	> 5.91 µM	0.231 µM	0.0448 µM	0.0395 µM	1.07 µM	0.0337 µM	0.101 µM	0.024 µM	0.0358 µM	0.104 µM	0.0134 µM
C[n+]1c2ccccc2c(Nc2ccc(NS(=O)(=O)CCCCN=C(N)N)cc2)c2ccc(N)cc21	66.4 µM		> 80.2 µM	> 85.5 µM	50.6 µM	> 100 µM	22.4 µM	0.163 µM	3.5 µM	> 79.1 µM	0.0212 µM	10.2 µM	2.16 µM	18.5 µM	4.88 µM	0.917 µM
COc1ccc2c(c1)c1nc3cc(C)c(C)cc3nc1n2CCN(C)C	2.37 µM	4.94 µM	2.55 µM	3.57 µM	3.29 µM	1.73 µM	2.48 µM	1.06 µM	0.827 µM	2.37 µM	0.42 µM	1.13 µM	1.42 µM	1.46 µM	0.405 µM	0.884 µM
COc1ccc2c3c(c4ccccc4cc13)C(=O)N(CCN(C)CCN)C2=O	1.04 µM	0.301 µM	1.19 µM	1.49 µM	18.5 µM	1.32 µM	1.56 µM	0.0663 µM	0.171 µM	1.28 µM		0.257 µM	0.106 µM	0.887 µM	0.0515 µM	0.077 µM
COc1ccc(C2=Nc3c/c(=C\c4c(O)[nH]c5ccc(Cl)cc45)ccc3=N2)cc1	3.17 µM	6.08 µM	2.91 µM	5.47 µM		3.28 µM		1.63 µM	1.22 µM	2.65 µM	1.99 µM	1.53 µM	2.09 µM		1.41 µM	
